Results on 13 compounds are retold here after PubChem BioAssay (NCI).

Test systems include 786-0 renal; ACHN renal; CAKI-1 renal; HCT-15 colon; LOX IMVI melanoma; MALME-3M melanoma; NCI-H522 lung; SR leukemia; SW-620 colon; TK-10 renal.
Holding throughout (test): growth of human tumour cells (NCI), 48 h

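Step 1: Grow cells in 96-well plates. Step 2: Expose to compound for 48 hours at 5 concentrations. Step 3: Interpolate endpoints linearly; if unreached, use highest concentration. Abbreviation: GI50, concentration required for 50% inhibition of growth. The concentration for full growth arrest is given as TGI.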 Peptide text beside a SMILES is read from it. * marks the point of attachment. OSu = O=C1CCC(=O)N1O*; OBn = c1ccc(CO*)cc1; Bn = c1ccc(C*)cc1

As to `CCOC(=O)C12C(=O)CCN1CCc1ccccc1C2C` (stereo not drawn), the TGI in the experiment on 786-0 renal, in the experiment on ACHN renal, in the experiment with CAKI-1 renal, in the experiment on HCT-15 colon, with LOX IMVI melanoma and in the experiment with MALME-3M melanoma was above 100 µM each time. Besides, the TGI in the experiment on NCI-H522 lung, in the experiment on SR leukemia, with SW-620 colon and in the experiment on TK-10 renal was above 100 µM each time.

As for `C/C(=N\NC(=O)N/N=C(\C)c1ccccn1)c1ccccn1`, the TGI is above 51.5 µM in the experiment with 786-0 renal; above 100 µM in the experiment with ACHN renal; above 100 µM in the experiment on CAKI-1 renal; above 100 µM in the experiment on HCT-15 colon; above 100 µM in the experiment with LOX IMVI melanoma; above 100 µM in the experiment on MALME-3M melanoma. Further, the TGI in the experiment with NCI-H522 lung, in the experiment with SR leukemia and with SW-620 colon was above 100 µM each time.

Take `CCOC(=O)C1=CN(C(=O)c2ccccc2)CCC1Cc1ccccc1` (stereo not drawn): the TGI was above 100 µM in the experiment with 786-0 renal; 63.6 µM in the experiment with ACHN renal; above 100 µM in the experiment with CAKI-1 renal; above 100 µM in the experiment on HCT-15 colon; 34.4 µM with LOX IMVI melanoma; 68 µM in the experiment on MALME-3M melanoma. Besides, the TGI with NCI-H522 lung was 40.5 µM; in the experiment on SR leukemia, 37.5 µM; in the experiment on SW-620 colon, above 100 µM; with TK-10 renal it was 75.3 µM.

With `Nc1ccc(-c2nc3cc(F)ccc3s2)cc1`, the TGI in the experiment with 786-0 renal was above 100 µM; in the experiment on ACHN renal, above 61.7 µM; in the experiment on CAKI-1 renal it was above 100 µM; in the experiment on HCT-15 colon it was above 85.7 µM; in the experiment on LOX IMVI melanoma, above 100 µM; in the experiment on MALME-3M melanoma, above 100 µM. The TGI is above 100 µM in the experiment with NCI-H522 lung, above 100 µM in the experiment with SR leukemia, above 100 µM in the experiment on SW-620 colon and above 93.1 µM with TK-10 renal.

With `COc1cc([C@@H]2c3cc4c(cc3[C@@H](Nc3ccc(NC(=O)c5cc(NC(=O)c6cc([N+](=O)[O-])cn6C)cn5C)cc3)[C@H]3COC(=O)[C@H]23)OCO4)cc(OC)c1O`, the TGI is above 39.7 µM with 786-0 renal; 12.1 µM with ACHN renal; above 28.5 µM in the experiment with CAKI-1 renal; above 55.2 µM in the experiment with HCT-15 colon; above 44.1 µM with LOX IMVI melanoma; above 100 µM with MALME-3M melanoma. Moreover, the TGI in the experiment on NCI-H522 lung is above 100 µM; in the experiment on SR leukemia it was above 100 µM; with SW-620 colon, above 62.5 µM; with TK-10 renal, above 100 µM.

As for `O=C1C(CN2CCCC2)CCCC1CN1CCCC1` (stereo not drawn), the TGI in the experiment on 786-0 renal turned out to be 2.42 µM; in the experiment on ACHN renal, 3.42 µM; in the experiment on CAKI-1 renal it was 3.11 µM; in the experiment with HCT-15 colon, 4.54 µM; with LOX IMVI melanoma it was 6.26 µM; in the experiment with MALME-3M melanoma, 1.27 µM. In addition, the TGI in the experiment on NCI-H522 lung is 0.29 µM; in the experiment with SR leukemia it was 5.66 µM; in the experiment on SW-620 colon, 0.32 µM; in the experiment on TK-10 renal it was 5.5 µM.

For `NC(CNc1ccc(O)cc1)C(=O)O` (stereo not drawn), the TGI is 30.2 µM in the experiment with 786-0 renal; above 100 µM in the experiment with ACHN renal; above 100 µM in the experiment on CAKI-1 renal; above 100 µM with HCT-15 colon; above 100 µM in the experiment on LOX IMVI melanoma; above 100 µM in the experiment with MALME-3M melanoma. For the same compound, the TGI in the experiment with NCI-H522 lung, in the experiment with SR leukemia, in the experiment on SW-620 colon and in the experiment with TK-10 renal was above 100 µM in each case.

Turning to `Cc1nn(-c2ccccc2)c2c1N=C(C(=O)O)CC(c1ccccc1)=N2`, the TGI with 786-0 renal, with ACHN renal, in the experiment with CAKI-1 renal, in the experiment with HCT-15 colon, with LOX IMVI melanoma and with MALME-3M melanoma was above 10 µM each time. Besides, the TGI with NCI-H522 lung, in the experiment with SR leukemia, with SW-620 colon and in the experiment on TK-10 renal was above 10 µM throughout.

As for `CC(C)CC(NC(=O)C(N)CCC(=O)OCc1ccccc1)C(=O)NC(COCc1ccccc1)C(=O)NC(Cc1ccccc1)C(=O)ON1C(=O)CCC1=O` (stereo not drawn) (H-E(OBn)LS(Bn)F-OSu; configuration not given here), the TGI in the experiment on 786-0 renal is above 100 µM; in the experiment with ACHN renal, above 100 µM; in the experiment with CAKI-1 renal, 64 µM; in the experiment on LOX IMVI melanoma it was 50.7 µM; in the experiment with MALME-3M melanoma, 96.1 µM; in the experiment with NCI-H522 lung, 47.8 µM. Besides, the TGI is 85.4 µM in the experiment with SR leukemia, above 100 µM in the experiment with SW-620 colon and 73.8 µM in the experiment with TK-10 renal.

With `COC1CCC(n2c([C@@H]3CCCC(=O)N3c3ccc(F)c(F)c3)nc3cc(-c4c(C)noc4C)ccc32)CC1` (stereo partly drawn), the GI50 with ACHN renal was 4.78 µM; in the experiment on CAKI-1 renal, 0.64 µM; with HCT-15 colon, 4.73 µM; in the experiment on LOX IMVI melanoma it was 4.13 µM; with MALME-3M melanoma, 1.74 µM; in the experiment with NCI-H522 lung, 2.93 µM. The GI50 is 0.755 µM in the experiment on SR leukemia, 19.1 µM in the experiment with SW-620 colon and 2.46 µM in the experiment with TK-10 renal. Also, the TGI is 21.1 µM in the experiment on ACHN renal; 12.7 µM in the experiment on CAKI-1 renal; 38.3 µM in the experiment on HCT-15 colon; 16.9 µM in the experiment with LOX IMVI melanoma; 17.7 µM with MALME-3M melanoma; 19.8 µM with NCI-H522 lung. Also, the values for the TGI with SR leukemia, in the experiment with SW-620 colon and in the experiment on TK-10 renal were above 100 µM, above 100 µM and 12.7 µM, respectively.

Turning to `CC(C)(C)c1cc(C2NC(=O)NC2=O)cc(C(C)(C)C)c1O` (stereo not drawn), the TGI with ACHN renal, in the experiment with CAKI-1 renal, with HCT-15 colon, with LOX IMVI melanoma, in the experiment on MALME-3M melanoma and with NCI-H522 lung was above 100 µM each time. Moreover, the TGI in the experiment with SR leukemia is above 100 µM; with SW-620 colon, above 100 µM; in the experiment on TK-10 renal, 95.2 µM.

As to `S=C1CSc2c(cnc3ccccc23)N1`, the TGI in the experiment with 786-0 renal, in the experiment on ACHN renal, with CAKI-1 renal, in the experiment with HCT-15 colon, in the experiment on LOX IMVI melanoma and in the experiment on MALME-3M melanoma was above 100 µM in each case. Besides, the TGI with NCI-H522 lung, in the experiment with SR leukemia and in the experiment with TK-10 renal was above 100 µM throughout.

Take `O=[N+]([O-])c1ccc(-[n+]2ccc3ccccc3c2)c([N+](=O)[O-])c1`: the TGI in the experiment on 786-0 renal worked out at 3.24 µM; in the experiment on ACHN renal, 4.44 µM; in the experiment with CAKI-1 renal it was 8.74 µM; with HCT-15 colon it was 3.65 µM; in the experiment with LOX IMVI melanoma it was 3.67 µM; in the experiment with MALME-3M melanoma, 9.09 µM. The TGI in the experiment with NCI-H522 lung is 3.74 µM; in the experiment on SR leukemia it was above 100 µM; in the experiment with TK-10 renal, 3.52 µM.
